Data published in patent publication US8785638B2, “Thieno [2, 3-B] pyridine derivatives as viral replication inhibitors” (Katholieke Universiteit Leuven, priority 2009, dated 2014).
Like-named read-outs stand apart in the source and are kept apart here.

Experiments:
[1] = molecular target: LEDGF/p75-HIV-1 integrase interaction (Human immunodeficiency virus type 1 group M subtype B (isolate HXB2) (HIV-1), UniProt P04585); assay: AlphaScreen assay of LEDGF-integrase interaction inhibition; format: binding
Protocol: Alphascreen Assay to Measure the LEDGF-Integrase Interaction Inhibitory Activity of Compounds of the Invention
The AlphaScreen assay was performed according to the manufacturer's protocol (Perkin Elmer, Benelux). Reactions were performed in 25 μl final volume in 384-well Optiwell™ microtiter plates (Perkin Elmer). The reaction buffer contained 25 mM Tris-HCl (pH 7.4), 150 mM NaCl, 1 mM MgCl2, 0.01% (v/v) Tween-20 and 0.1% (w/v) bovine serum albumin. His6-tagged integrase (300 nM final concentration) was incubated with the compounds for 30 min at 4° C. The compounds were added at varying concentrations spanning a wide range from 0.1 up to 100 μM. Afterwards 100 nM flag-LEDGF/p75 was added and incubation was prolonged for an additional hour at 4° C. Subsequently 5 μl of Ni-chelate-coated acceptor beads and 5 μl anti-flag donor beads were added to a final concentration of 20 μg/ml of both beads. Proteins and beads were incubated for 1 h at 30° C. in order to allow association to occur. Exposure of the reaction to direct light was omitted as much as possible and the emission of light from the acceptor beads was measured in the EnVision plate reader (Perkin Elmer, Benelux) and analyzed using the EnVision manager software. IN/DNA binding was analyzed in a similar setting using His6-tagged integrase (1 μM final concentration) and an oligodeoxynucleotide mimicking the IN ELISA oligonucleotide substrate (30 nM final concentration). Counterscreens with JPO2 or PogZ, respectively, were essentially performed as described previously.
His6-tagged HIV-1 integrase, 3xflag-tagged LEDGF/p75, MBP-JPO2 and MBP-PogZ were purified for AlphaScreen applications as described previously 23,25,56.

[2] = system: HIV-1 (IIIB), HIV-1 (NL4.3); assay: microbe, parasite or virus in culture; format: cell-based; conditions: for EC50: Human immunodeficiency virus 1, IIIB, MT4, MT-4 cells, 50% protection against HIV-induced cytopathogenic effect, MTT; for SI: selectivity index, ratio of CC50 to EC50
Protocol: (§1) A rapid and automated assay procedure was used for the in vitro evaluation of anti-HIV agents. An HTLV-1 transformed T4-cell line MT-4, which was previously shown to be highly susceptible to and permissive for HIV infection, served as the target cell line. Inhibition of the HIV-induced cytopathogenic effect was used as the end point. The viabitlity of both HIV- and mock-infected cells was assessed spectrophotometrically via in situ reduction of 3-(4,5-dimethylthiazol-2-yl)-2,5-diphenyltetrazolium bromide (MTT). The 50% cytotoxic concentration (CC50 in μM or μg/ml) was defined as the concentration of compound that reduced the absorbance of the mock-infected control sample by 50%. The percent protection achieved by the compound in HIV-infected cells was calculated by the following formula:
(§2) [formula] whereby (ODT)HIV is the optical density measured with a given concentration of the test compound in HIV-infected cells; (ODC)HIV is the optical density measured for the control untreated HIV-infected cells; (ODC)MOCK is the optical density measured for the control untreated mock-infected cells; all optical density values were determined at 540 nm. The dose achieving 50% protection according to the above formula was defined as the 50% inhibitory concentration (EC50 in μM or μg/ml). The ratio of CC50 to EC50 was defined as the selectivity index (SI). […] Examples of inhibition of cell proliferation by particular compounds of the invention can be found by looking at the respective CC50 values in the MT-4 cell line. Cells:
(§3) MT-4 cells (Miyoshi et al., 1982) were grown and maintained in RPMI 1640 medium supplemented with 10% heat-inactivated fetal calf serum, 2 mM I-glutamine, 0.1% sodium bicarbonate, and 20 μg of gentamicin per ml. Alternatively, the MT-4 cells may also be grown in RPMI 1640 medium supplemented with 10% FCS and 20 μg/ml of gentamicin (RPMI-complete).
The HIV-1 (IIIB) strain (Popovic et al., 1984) as well as the HIV-1 (NL4.3) strain (Adachi et al., J. Virol. 59, 284-291 (1986)) were used.

[3] = Cytotoxicity in mock-infected MT-4 cells (MTT); format: cell-based; conditions: human, 50% cytotoxic concentration
Protocol: as §1, §2, §3

[4] = His6-tagged integrase 300 nM, flag-LEDGF/p75 100 nM, read-out: Alphascreen IC50

With Cc1ccc(-c2c(C(CC(C)(C)C)C(=O)O)c(C)nc3sc4c(c23)CCCC4)cc1 (centres unmarked) [Cpd 162, 2-[2-Methyl-4-(p-tolyl)-5,6,7,8-tetrahydro[1]benzothieno[2,3-b]pyridin-3-yl]-4,4-dimethylpentanoic acid] the IC50 [1, 4] was 1.57 µM, the EC50 [2] was 0.33 µM and the SI [2] was 217. For the same compound, the CC50 [3] was 71.7 µM.
For CCCC(c1nnn[nH]1)c1c(C)nc2sc3c(c2c1-c1ccc(C)cc1)CCCC3 (centres unmarked) [Cpd 175, 2-Methyl-4-(p-tolyl)-3-[1-(1H-tetrazol-5-yl)butyl]-5,6,7,8-tetrahydro[1]benzothieno[2,3-b]pyridine], the IC50 [1, 4] was under 1 µM, the EC50 [2] was 8.89 µM and the SI [2] was 9. It also gave a CC50 [3] of 79.2 µM.
With CCC[C@H](C(=O)O)c1c(C)nc2sc3c(c2c1-c1ccc(C)cc1)CCCC3 [Cpd 114, (2S)-[2-Methyl-4-p-tolyl-5,6,7,8-tetrahydro[1]benzothieno[2,3-b]pyridin-3-yl]pentanoic acid] the IC50 [1, 4] was under 1 µM, the EC50 [2] was 0.58 µM and the SI [2] was 217. It also gave a CC50 [3] of 126 µM.
In the case of CCCC(C(=O)O)c1c(C)nc2sc3c(c2c1-c1ccc(C)cc1)CCC3 (centres unmarked) [Cpd 100, 2-[2-Methyl-4-p-tolyl-6,7-dihydro-5H-cyclopenta[4,5]thieno[2,3-b]pyridin-3-yl]pentanoic acid], the IC50 [1, 4] is reported as 6.61 µM, the EC50 [2] is reported as 1.69 µM and the SI [2] is reported as 72. It also gave a CC50 [3] of 121 µM.
In the case of Cc1ccc(-c2c(C(OC(C)(C)C)C(=O)O)c(C)nc3sc4c(c23)CCCC4)cc1 (centres unmarked) [Cpd 170, 2-[2-Methyl-4-p-tolyl-5,6,7,8-tetrahydro[1]benzothieno[2,3-b]pyridin-3-yl]-2-tert-butoxyacetic acid], the IC50 [1, 4] is reported as 0.05 µM, the EC50 [2] is reported as 0.0263 µM and the SI [2] is reported as 4429. The CC50 [3] was 116 µM.
For CCCC(C(=O)O)c1c(C)nc2scc(-c3ccccc3)c2c1-c1ccc(C)cc1 (centres unmarked) [Cpd 143], the IC50 [1, 4] was 49.2 µM, the EC50 [2] was over 66 µM and the CC50 [3] was 66 µM.
Work on CCCC(C(=O)O)c1c(C)nc2sc3c(c2c1-c1cccnc1)CCCC3 (centres unmarked) [Cpd 150, 2-[2-Methyl-4-(pyridin-3-yl)-5,6,7,8-tetrahydro[1]benzothieno[2,3-b]pyridin-3-yl]pentanoic acid] yielded an IC50 [1, 4] of 1.37 µM, an EC50 [2] of 0.78 µM and an SI [2] of 49. The CC50 [3] was 38.5 µM.
CCc1sc2nc(C)c(CC(=O)O)c(-c3ccc(C)cc3)c2c1C [Cpd 105, (2-Ethyl-3,6-dimethyl-4-p-tolylthieno[2,3-b]pyridin-5-yl)acetic acid] gave an IC50 [1, 4] of 64.3 µM, an EC50 [2] of over 62.7 µM and a CC50 [3] of 62.7 µM.
Compound CCCC(C(=O)O)c1c(C)nc2sc3c(c2c1-c1ccc(C)cc1)CCCC3 (centres unmarked) [Cpd 113, 2-[2-Methyl-4-p-tolyl-5,6,7,8-tetrahydro[1]benzothieno[2,3-b]pyridin-3-yl]pentanoic acid] has an IC50 [1, 4] of 0.75 µM, an EC50 [2] of 0.44 µM and an SI [2] of 183. It also gave a CC50 [3] of 80.6 µM.
Cc1ccc(-c2c(C(C(=O)O)C(C)C)c(C)nc3sc4c(c23)CCCC4)cc1 (centres unmarked) [Cpd 156, 2-[2-Methyl-4-(p-tolyl)-5,6,7,8-tetrahydro[1]benzothieno[2,3-b]pyridin-3-yl]-3-methylbutanoic acid] gave an IC50 [1, 4] of 59.6 µM, an EC50 [2] of over 98 µM and a CC50 [3] of 98 µM.
Compound CCCC(C(=O)O)c1c(CC)nc2sc3c(c2c1-c1ccc(C)cc1)CCCC3 (centres unmarked) [Cpd 181, 2-[2-ethyl-4-(p-tolyl)-5,6,7,8-tetrahydro[1]benzothieno[2,3-b]pyridin-3-yl]pentanoic acid] has an IC50 [1, 4] of 8.06 µM, an EC50 [2] of 2.89 µM and an SI [2] of 28. For the same compound, the CC50 [3] was 81 µM.
Work on CCCC(C(=O)O)c1c(C)nc2sc3c(c2c1-c1ccc(Cl)cc1)CCCC3 (centres unmarked) [Cpd 148, 2-[2-Methyl-4-(4-chlorophenyl)-5,6,7,8-tetrahydro[1]benzothieno[2,3-b]pyridin-3-yl]pentanoic acid] yielded an IC50 [1, 4] of 2.19 µM, an EC50 [2] of 0.53 µM and an SI [2] of 132. For the same compound, the CC50 [3] was 70 µM.
For Cc1nc2sc3c(c2c(-c2ccc4c5c(ccnc25)CCO4)c1C(OC(C)(C)C)C(=O)O)CCCC3 (centres unmarked) [Cpd 190], the IC50 [1] was 0.37 µM, the EC50 [2] was 0.015 µM and the SI [2] was 8401. For the same compound, the CC50 [3] was 129 µM.
In the case of CCCC(C(=O)O)c1c(C)nc2sc3c(c2c1-c1ccc(CC)cc1)CCCC3 (centres unmarked) [Cpd 149, 2-[2-Methyl-4-(4-ethylphenyl)-5,6,7,8-tetrahydro[1]benzothieno[2,3-b]pyridin-3-yl]pentanoic acid], the IC50 [1, 4] is reported as 74.4 µM, the EC50 [2] is reported as over 67 µM and the CC50 [3] is reported as 67 µM.
CCCC(C(=O)O)c1c(C)nc2sccc2c1-c1ccc(C)cc1 (centres unmarked) [Cpd 119, 2-(6-Methyl-4-p-tolylthieno[2,3-b]pyridin-5-yl)pentanoic acid] gave an IC50 [1, 4] of 2.66 µM, an EC50 [2] of 31.6 µM and an SI [2] of 4. For the same compound, the CC50 [3] was 109 µM.
For Cc1ccc(-c2c(C(CC3CC3)C(=O)O)c(C)nc3sc4c(c23)CCCC4)cc1 (centres unmarked) [Cpd 165, 2-[2-Methyl-4-(p-tolyl)-5,6,7,8-tetrahydro[1]benzothieno[2,3-b]pyridin-3-yl]-3-cyclopropylpropanoic acid], the IC50 [1, 4] was under 1 µM, the EC50 [2] was 0.867 µM and the SI [2] was 102. It also gave a CC50 [3] of 89 µM.
Cc1ccc(-c2c(C(OC(C)(C)C)C(=O)O)c(C)nc3sc4c(c23)CCCC4)cn1 (centres unmarked) [Cpd 184, 2-[2-methyl-4-(6-methylpyridin-3-yl)-5,6,7,8-tetrahydro[1]benzothieno[2,3-b]pyridin-3-yl]-2-tert-butoxyacetic acid] gave an IC50 [1, 4] of 3.44 µM, an EC50 [2] of 0.157 µM and an SI [2] of 1513. It also gave a CC50 [3] of 237 µM.
With C=C(C(=O)O)c1c(C)nc2sc3c(c2c1-c1ccc(C)cc1)CCC3 [Cpd 124, 2-[2-methyl-4-p-tolyl-6,7-dihydro-5H-cyclopenta[4,5]thieno[2,3-b]pyridin-3-yl]acrylic acid] the IC50 [1, 4] was 41 µM, the EC50 [2] was over 117 µM and the CC50 [3] was 117 µM.
In the case of CCCC(C(=O)O)c1c(C)nc2scc(C)c2c1-c1ccc(C)cc1 (centres unmarked) [Cpd 118, 2-(3,6-Dimethyl-4-p-tolylthieno[2,3-b]pyridin-5-yl)pentanoic acid], the IC50 [1, 4] is reported as 23.4 µM, the EC50 [2] is reported as over 50.2 µM and the CC50 [3] is reported as 50.2 µM.
For CCCC(C(=O)O)c1c(C)nc2sc3c(c2c1-c1ccc(C)cc1)CC(C)C3 (centres unmarked) [Cpd 127, 2-[2-methyl-6-methyl-4-p-tolyl-6,7-dihydro-5H-cyclopenta[4,5]thieno[2,3-b]pyridin-3-yl]pentanoic acid], the IC50 [1, 4] was 2.85 µM, the EC50 [2] was 0.79 µM and the SI [2] was 105. For the same compound, the CC50 [3] was 82.9 µM.
Compound CCCC(C(=O)O)c1c(C)nc2sc(C)c(CC)c2c1-c1ccc(C)cc1 (centres unmarked) [Cpd 109, 2-(3-Ethyl-2,6-dimethyl-4-p-tolylthieno[2,3-b]pyridin-5-yl)pentanoic acid] has an IC50 [1, 4] of 6.81 µM, an EC50 [2] of 2.22 µM and an SI [2] of 26. It also gave a CC50 [3] of 57.9 µM.
Work on CCCC(C(=O)O)c1c(C)nc2sc3c(c2c1-c1cccc(C(F)(F)F)c1)CCCC3 (centres unmarked) [Cpd 140, 2-[2-Methyl-4-(3-trifluoromethylphenyl)-5,6,7,8-tetrahydro[1]benzothieno[2,3-b]pyridin-3-yl]pentanoic acid] yielded an IC50 [1, 4] of 18.1 µM, an EC50 [2] of 28.2 µM and an SI [2] of 4. For the same compound, the CC50 [3] was 100 µM.
For Cc1ccc(-c2c(C(CCC(F)(F)F)C(=O)O)c(C)nc3sc4c(c23)CCCC4)cc1 (centres unmarked) [Cpd 158, 2-[2-Methyl-4-(p-tolyl)-5,6,7,8-tetrahydro[1]benzothieno[2,3-b]pyridin-3-yl]-5,5,5-trifluoropentanoic acid], the IC50 [1, 4] was 13.5 µM, the EC50 [2] was 5.48 µM and the SI [2] was 11. For the same compound, the CC50 [3] was 58.5 µM.
